Source: patent US4595530A, “Thiodeazapurine derivatives” (Takeda Chemical Industries, Ltd., priority 1983, dated 1986)
In brackets after ≈: the same amount, converted by molar mass.

Key:
[1] = tested on: L5178Y mouse tumor cells; assay: growth inhibition of cultured L5178Y cells; format: cell-based; details: 72 hours incubation with drug, cell count vs non-treated control, read-out: IC50 (50% growth inhibitory concentration)
Experimental: 1×10^4 L5178Y mouse tumor cells were suspended in 2 ml of a RPMI-1640 medium containing 10% of bovine fetal serum, 20 μM of 2-mercaptoethanol and 100 μg/ml kanamycin (Nissui Pharmaceutical Co., Ltd. Japan), and incubated at 37° C. for 24 hours before addition of the drug. Using the above culture fluid as a diluent, the compound of Example 1 was diluted 1/4-fold in a series of 5 stages, the maximum concentration of the compound in the medium being 200 μg/ml. The dilutions were further incubated for 72 hours, at the end of which time the cells were counted and the IC50 (50% growth inhibitory concentration) was calculated with the count for the non-treated control group being taken as 100%.

[2] = tested on: rat liver tRNA-guanine transglycosylase; assay: uptake of compound into tRNA ([3H]-guanine labeled tRNA exchange); format: biochemical; details: 0.02 OD260 of compound, 37° C., 17 hours, 0.5 unit enzyme
Experimental: [^3 H]-Guanine labeled tRNA^(*^) (8000 cpm), 70 mM of tris hydrochloride, 60 mM of magnesium chloride, 0.5 unit of rat liver tRNA-guanine transglycosylase and 0.02 OD260 of the compound of Example 1 (which appears hereinafter) (100 μl) were incubated at 37° C. for 17 hours. The reaction mixture was applied to a Whatman 3 MM filter paper (Whatman Co., U.S.A.) and washed 3 times with a 5% aqueous solution of trichloroacetic acid and, then, once each with ethanol/ether (1:1) and ether alone. After drying, the uptake of the test compound was determined in a toluenic scintillation fluid.
^(*^) tRNA with the firstletter (base) of its anticodon labeled with [^3 H]guanine.
The uptake of the compound of Example 2 into tRNA was determined in the same manner as Experimental Example 1. The result was 57%.

[3] = tested on: Meth A tumor cells; assay: Meth A tumor growth inhibition in mice; format: in vivo; details: BALB/c mouse, s.c. transplant, 100 mg/kg i.p. once daily for 14 days from day 4, tumor weight on 35th day
Experimental: 5×10^4 Meth A tumor cells were subcutaneously transplanted into a BALB/c mouse weighing 20 g and starting on the 4th day after transplantation, a solution of the compound of Example 1 in 0.1 ml of distilled water was intraperitoneally injected into the mouse once daily in a dose of 100 mg/kg for 14 consecutive days. On the 35th day after transplantation, the tumor node was enucleated and weighed.

SMILES	IC50 [1] [µg/mL]	uptake of the test compound into tRNA (% of tRNA) [2] [%]	tumor growth inhibition rate [3] [%]
Nc1nc2[nH]cc(CN[C@H]3C=C[C@H](O)[C@@H]3O)c2c(=S)[nH]1 [Example 1, 2-amino-5-[(3S,4R,5S)-4,5-dihydroxycyclopent-1-en-3-ylaminomethy-]pyrrolo[2,3-d]pyrimidine-4-thione]	22 (≈ 75 µM)	81	71
NCc1c[nH]c2nc(N)[nH]c(=S)c12 [Example 2, 2-amino-5-aminomethylpyrrolo[2,3-d]pyrimidine-4-thione]		57	
